Marks after values point to notes of the source that are not given here.
Assays:
[1] = tested on: MCF-7 cells; experiment: Cell cycle distribution by flow cytometry; type: cell-based, human; settings: 24 h
[2] = Pharmacokinetics study, oral bioavailability; settings: rat
[3] = tested on: Ishikawa endometrial adenocarcinoma cells; experiment: Antiproliferative assay; type: cell-based; settings: Homo sapiens, growth inhibition
[4] = MTT antiproliferative assay (neutral control); settings: human
[5] = Serum biochemical markers after treatment of MNU-induced rats; type: in vivo, Wistar rats; design: TBC: unit not given here; settings: for ALP (A/L) / ALT (A/L) / AST (U/L) / γ-GT (U/L): serum; for TBC: total bilirubin content
Summary of the method: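 Mammary tumours induced in rats by MNU 50 mg/kg i.p. at day 50; after two weeks, compounds given orally at 5 or 50 mg/kg once daily for six weeks. Serum AST, ALT (340 nm), ALP (405 nm) and bilirubin measured; liver homogenate GSH, CAT, MDA by colorimetry; plasma binding by ultrafiltration at 37°C with BCA protein read-out.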

Structure (SMILES) | Cell Cycle (%) G0/G1 ([1]; 0.1 nM) | Cell Cycle (%) G2/M ([1]; 0.1 nM) | Cell Cycle (%) S ([1]; 0.1 nM) | Cell Cycle (%) G0/G1 ([1]; 1 nM) | Cell Cycle (%) G2/M ([1]; 1 nM) | Cell Cycle (%) S ([1]; 1 nM) | BIO ([2]; oral 5 mg/kg) | BIO ([2]; oral 50 mg/kg) | IC50 [3] [nM] | IC50 at 48 h [4] [nM] | ALP (A/L) ([5]; dose 5 mg/kg) | ALT (A/L) ([5]; dose 5 mg/kg) | AST (U/L) ([5]; dose 5 mg/kg) | γ-GT (U/L) ([5]; dose 5 mg/kg) | ALP (A/L) ([5]; dose 50 mg/kg) | ALT (A/L) ([5]; dose 50 mg/kg) | AST (U/L) ([5]; dose 50 mg/kg) | γ-GT (U/L) ([5]; dose 50 mg/kg) | TBC ([5]; dose 5 mg/kg) | TBC ([5]; dose 50 mg/kg) | also measured
CC(=O)c1cc(C(=O)OC2/C=C/C(=O)O[C@@H](O)CCC/C=C/[C@@H]3C[C@H](O)C[C@@H]23)ccc1OCCN1CCC=C(C(=O)O)C1 (stereo partly drawn) [Compound 3DPQ-3, 1-(2-(2-acetyl-4-((((2E,6R,10E,11aS,13S,14aR)-6,13-dihydroxy-4-oxo-4,6,7,8,9,11a,12,13,14,14a-decahydro-1H-cyclopenta[f][1]oxacyclotridecin-1-yl)oxy)carbonyl)phenoxy)ethyl)-1,2,5,6-tetrahydropyridine-3-carboxylic acid] | 72.99 ± 1.32 *^,†,‡,§ % | 18.03 ± 1.65 *^,†,‡,§ % | 8.98 ± 1.64 *^,†,‡,§ % | 75.45 ± 1.53 *^,†,‡,§ % | 14.87 ± 2.43 *^,†,‡,§ % | 9.69 ± 0.94 *^,†,‡,§ % | 90 | 93 | 0.84 ± 0.74 | > 100 | 87.47±0.21 | 49.84±0.59 | 58.43±0.31 | 10.36±0.45 | 86.65±0.44 | 55.84±0.79 | 61.63±0.47 | 11.64±0.84 | 17.54±0.36 | 20.32 | 
CC(=O)c1cc(C(=O)O[C@@H]2/C=C/C(=O)O[C@@H](O)CCC/C=C/[C@@H]3C[C@H](O)C[C@H]32)ccc1OCCN1CCCC(O)C1=O (stereo partly drawn) [Compound 3DPQ-12, (1R,2E,6R,10E,11aS,13S,14aR)-6,13-dihydroxy-4-oxo-4,6,7,8,9,11a,12,13,14,14a-decahydro-1H-cyclopenta[f][1]oxacyclotridecin-1-yl 3-acetyl-4-(2-(3-hydroxy-2-oxopiperidin-1-yl)ethoxy)benzoate] | 77.83 ± 0.92 *^,†,‡,§ % | 5.21 ± 2.54 *^,†,‡,§ % | 16.96 ± 1.23 *^,†,‡,§ % | 80.29 ± 1.24 *^,†,‡,§ % | 2.05 ± 1.43 *^,†,‡,§ % | 17.67 ± 1.32 *^,†,‡,§ % | 93 ^‡ | 96 | 0.77 ± 0.43 | > 100 | 132.67±0.43 | 50.99±0.84 | 51.54±0.74 | 13.53 | 121.33±0.23 | 59.65±0.84 | 52.69±0.95 | 15.54±0.83 | 19.28 | 23.43 | 
CC(=O)c1cc(C(=O)O[C@@H]2/C=C/C(=O)O[C@@H](O)CCC/C=C/[C@@H]3C[C@H](O)C[C@H]32)ccc1OCCN(C)C [Compound 3DPQ-2, (1R,2E,6R,10E,11aS,13S,14aR)-6,13-dihydroxy-4-oxo-4,6,7,8,9,11a,12,13,14,14a-decahydro-1H-cyclopenta[f][1]oxacyclotridecin-1-yl 3-acetyl-4-(2-(dimethylamino)ethoxy)benzoate] | 73.64 ± 5.32 *^,†,‡,§ % | 14.48 ± 2.54 *^,†,‡,§ % | 11.88 ± 0.87 *^,†,‡,§ % | 76.10 ± 1.43 *^,†,‡,§ % | 11.32 ± 3.25 *^,†,‡,§ % | 12.59 ± 1.57 *^,†,‡,§ % | 92 | 94 | 0.99 ± 0.35 | > 100 | 98.53±0.14 | 46.89±0.74 | 56.43±0.21 | 16.52±0.42 | 119.47±0.13 | 49.47±0.64 | 59.54±0.32 | 17.35±0.56 | 16.43 | 17.72 | 
CC(=O)c1cc(C(=O)O[C@@H]2/C=C/C(=O)O[C@@H](O)CCC/C=C/[C@@H]3C[C@H](O)C[C@H]32)ccc1OCCN1CC(C(=O)O)=CCC1=O [Compound 3DPQ-9, 1-(2-(2-acetyl-4-((((1R,2E,6R,10E,11aS,13S,14aR)-6,13-dihydroxy-4-oxo-4,6,7,8,9,11a,12,13,14,14a-decahydro-1H-cyclopenta[f][1]oxacyclotridecin-1-yl)oxy)carbonyl)phenoxy)ethyl)-6-oxo-1,2,5,6-tetrahydropyridine-3-carboxylic acid] | 71.47 ± 0.99 *^,†,‡,§ % | 15.56 ± 2.65 *^,†,‡,§ % | 12.97 ± 1.65 *^,†,‡,§ % | 75.93 ± 152 *^,†,‡,§ % | 10.40 ± 3.54 *^,†,‡,§ % | 13.68 ± 1.74 *^,†,‡,§ % | 94 ^‡ | 97 | 0.89 ± 0.24 |  | 125.54±0.21 | 46.58±0.94 | 64.52±0.43 | 10.32 | 139.42±0.31 | 51.95±0.86 | 69.76±0.74 | 12.36±0.53 | 22.33 | 24.46 | IC50 at 48 h ([4]; MRC-5 lung fibroblast cells): > 100 nM
CNCCOc1ccc(C(=O)O[C@@H]2/C=C/C(=O)O[C@@H](O)CCC/C=C/[C@@H]3C[C@H](O)C[C@H]32)cc1C(C)=O [Compound 3DPQ-1, (1R,2E,6R,10E,11aS,13S,14aR)-6,13-dihydroxy-4-oxo-4,6,7,8,9,11a,12,13,14,14a-decahydro-1H-cyclopenta[f][1]oxacyclotridecin-1-yl 3-acetyl-4-(2-(methylamino)ethoxy)benzoate] | 72.62 ± 2.47 *^,†,‡,§ % | 17.40 ± 3.63 *^,†,‡,§ % | 9.98 ± 1.65 *^,†,‡,§ % | 75.08 ± 2.13 *^,†,‡,§ % | 14.24 ± 2.54 *^,†,‡,§ % | 10.69 ± 1.42 *^,†,‡,§ % | 91 | 94 | 0.94 ± 0.36 | > 100 | 104.53±0.75 | 51.63±0.32 | 44.78±0.61 | 13.54±1.74 | 107.52±0.6 | 53.43±1.34 | 49.54±0.65 | 16.43±0.76 | 15.43±0.32 | 19.41 | 

— publication PMC9101642 (Molecules, 2022)
